# Results as given in US7718666B2, “Pyrido [2,1-a] isoquinoline derivatives” (Hoffmann-La Roche Inc., priority 2003, dated 2010).
# Biological target: human DPP-IV (Homo sapiens, UniProt P27487)
# Experiment: DPP-IV activity assay (fluorogenic / colorimetric), IC50 determination
# Procedure: Activity of DPP-IV inhibitors are tested with natural human DPP-IV derived from a human plasma pool or with recombinant human DPP-IV. Human citrate plasma from different donors is pooled, filtered through a 0.2 micron membrane under sterile conditions and aliquots of 1 ml are shock frozen and stored at −120° C. until used. In the colorimetric DPP-IV assay 5 to 10 μl human plasma and in the fluorometric assay 1.0 μl of human plasma in a total assay volume of 100 μl is used as an enzyme source. […] Human DPP-IV is expressed and purified from the culture medium using conventional column chromatography including size exclusion and anion and cation chromatography. […] In the calorimetric DPP-IV assay 20 ng rec.-h DPP-IV and in the fluorometric assay 2 ng rec-h DPP-IV in a total assay volume of 100 μl is used as an enzyme source.
# Initial rate constants are calculated by best fit linear regression.
# The absorption of pNA liberated from the calorimetric substrate is detected in a Packard SpectraCount at 405 nm continuosly every 2 minutes for 30 to 120 minutes. Initial rate constants are calculated by best fit linear regression.
# DPP-IV activity assays are performed in 96 well plates at 37° C. in a total assay volume of 100 μl. […]
# Kinetic parameters of the enzyme reaction are calculated at least 5 different substrate concentrations and at least 5 different test compound concentrations.
# human DPP-IV, sequence (P27487 31-766): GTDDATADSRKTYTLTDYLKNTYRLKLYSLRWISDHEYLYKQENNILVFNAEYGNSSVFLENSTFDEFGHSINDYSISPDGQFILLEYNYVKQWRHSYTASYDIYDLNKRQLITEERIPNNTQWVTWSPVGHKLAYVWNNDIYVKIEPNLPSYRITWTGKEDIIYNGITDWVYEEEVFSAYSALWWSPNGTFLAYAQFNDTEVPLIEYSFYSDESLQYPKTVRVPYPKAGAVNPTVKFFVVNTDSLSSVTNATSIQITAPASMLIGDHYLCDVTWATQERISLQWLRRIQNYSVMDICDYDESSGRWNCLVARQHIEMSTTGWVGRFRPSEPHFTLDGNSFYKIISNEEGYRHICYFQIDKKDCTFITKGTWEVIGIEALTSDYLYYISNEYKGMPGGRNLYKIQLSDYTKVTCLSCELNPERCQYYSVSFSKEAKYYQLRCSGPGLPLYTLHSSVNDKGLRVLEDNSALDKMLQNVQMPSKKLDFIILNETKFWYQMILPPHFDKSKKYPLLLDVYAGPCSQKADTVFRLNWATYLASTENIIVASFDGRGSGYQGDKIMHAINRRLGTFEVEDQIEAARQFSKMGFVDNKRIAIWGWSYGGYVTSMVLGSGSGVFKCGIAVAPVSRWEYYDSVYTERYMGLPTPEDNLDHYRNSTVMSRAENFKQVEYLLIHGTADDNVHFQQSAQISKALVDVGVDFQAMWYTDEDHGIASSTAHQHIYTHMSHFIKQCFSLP
row,IC50,Compound
1,5.4 nM,"COc1cc2c(cc1OC)[C@@H]1C[C@H](N)[C@@H](n3ccc(C)c3)CN1CC2 (racemic) [Example 33, rac-9,10-Dimethoxy-3β-(3-methyl-pyrrol-1-yl)-1,3,4,6,7,11bβ-hexahydro-2H-pyrido[2,1-a]isoquinolin-2α-ylamine]"
2,11.5 nM,"COc1cc2c(cc1OC)[C@@H]1C[C@H](N)[C@@H](c3cc(C)ccn3)CN1CC2 [Example 9, 9,10-Dimethoxy-3(S)-(4-methyl-pyridin-2-yl)-1,3,4,6,7,11b(S)-hexahydro-2H-pyrido[2,1a]isoquinolin-2(S)-ylamine]"
